According to BindingDB's records for patent US20240043395 (Neuropore Therapies, 2024):
pIC50: −log10 of the molar value.

Target: Toll-like receptor 2 (Homo sapiens, UniProt O60603)
Experiment: LR2 Assays
Description: Next, 50 μL of an approximate 3×EC50 concentration of each agonist (Pam2CSK4 or Pam3CSK4) was added to the wells containing test compounds or the vehicle control. The plates were then incubated at 37° C./5% CO2 for 18 h. For each assay run, non-treated HEK-Blue hTLR2 cells were treated with serial dilutions of agonists to determine EC50 values for the respective run. On day 2, secreted alkaline phosphatase (SEAP) activity was detected in cell culture supernatants. In brief, 20 μL was collected from each well and transferred to a 96-well plate. Next, 200 μL of Quanti-Blue detection reagent was added to each well. […] IC50 values were calculated based on 8-point dilutions for each compound.

Sequence of Toll-like receptor 2 (O60603 whole entry): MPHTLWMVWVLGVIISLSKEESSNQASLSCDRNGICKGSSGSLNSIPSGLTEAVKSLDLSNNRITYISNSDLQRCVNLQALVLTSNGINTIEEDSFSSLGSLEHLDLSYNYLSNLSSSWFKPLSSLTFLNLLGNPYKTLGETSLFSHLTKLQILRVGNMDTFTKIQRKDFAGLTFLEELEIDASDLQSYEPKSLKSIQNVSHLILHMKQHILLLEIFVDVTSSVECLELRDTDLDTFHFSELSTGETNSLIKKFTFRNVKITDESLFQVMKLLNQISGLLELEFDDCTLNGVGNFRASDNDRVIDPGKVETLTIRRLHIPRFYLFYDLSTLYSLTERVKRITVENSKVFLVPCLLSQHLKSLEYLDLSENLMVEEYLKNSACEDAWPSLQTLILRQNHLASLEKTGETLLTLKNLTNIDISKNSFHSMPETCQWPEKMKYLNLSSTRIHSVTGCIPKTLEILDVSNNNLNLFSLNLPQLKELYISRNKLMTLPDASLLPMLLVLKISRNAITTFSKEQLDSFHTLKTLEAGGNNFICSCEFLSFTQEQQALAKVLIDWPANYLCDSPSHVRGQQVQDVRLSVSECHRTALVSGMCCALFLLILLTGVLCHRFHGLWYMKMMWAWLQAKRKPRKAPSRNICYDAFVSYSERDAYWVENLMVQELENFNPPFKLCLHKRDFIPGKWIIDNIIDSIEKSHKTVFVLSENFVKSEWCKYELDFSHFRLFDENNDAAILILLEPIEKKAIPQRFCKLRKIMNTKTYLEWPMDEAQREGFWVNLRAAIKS

pIC50: 5.28
Structure (SMILES): O=Cc1cc(NC(=O)c2csc(N3CCCCC3)n2)cc(F)c1O [US20240043395, Compound 9]
